# Literature values as cited in patent US20240398684A1, “HIGH UV PROTECTION CLEANSING COMPOSITION” (Conopco, Inc., d/b/a UNILEVER, priority 2020, published 2024).
# Conditions: Reference: Photochem. Photobiol. Sci., 2010,9, 464-469
row,absorption maxima [nm],SMILES
1,345,"CC1(C)C2CCC1(CS(=O)(=O)O)C(=O)C2=Cc1ccc(C=C2C(=O)C3(CS(=O)(=O)O)CCC2C3(C)C)cc1 [TDSA, Terephthalylidene dicamphor sulfonic acid]"
2,302,"O=S(=O)(O)c1ccc2[nH]c(-c3ccccc3)nc2c1 [PBSA, Phenyl benzimidazole sulphonic acid]"

row,SMILES,absorption maxima [nm]
1,"O=S(=O)([O-])c1cc(S(=O)(=O)O)cc2[nH]c(-c3ccc(-c4nc5c(S(=O)(=O)[O-])cc(S(=O)(=O)O)cc5[nH]4)cc3)nc12.[Na+].[Na+] [BD, Di sodium phenyl dibenzimidazole tetra sulfonate]",335
